From patent publication US20230303539A1, “IMMUNOREGULATORY COMPOUND AND ANTITUMOR APPLICATION THEREOF” (SHANGHAITECH UNIVERSITY, priority 2020, published 2023)

Experiments:
B lymphoma cells Daudi = experiment: Cell proliferation inhibition (cell viability, CCK-8) in Daudi; type: cell-based; details: Homo sapiens, 72 h treatment, CCK-8 cell viability
From the text: (§1) The tested cell lines used were: Multiple myeloma cell line MM.1S, human Burkitt's lymphoma cell line Daudi, human acute promyelocytic leukemia cell line NB4, human mantle cell lymphoma cell line JEKO-1, human B-cell lymphoma cell line SU-DHL-4, human mantle cell lymphoma cell line Mino, human diffuse large B-cell lymphoma cell line TMD8, human B-cell lymphoma cell line DOHH2, PBMCs cell and human diffuse large B-cell lymphoma cell line WSU-DLCL2, which were purchased from ATCC (American type Culture Collection) or Cell Bank/Stem Cell Bank, Chinese Academy of Sciences. The medium was RPMI1640 supplemented with 10% FBS (fetal calf serum) and 1% Penicillin-Streptomycin. The cells used were identified as correct cells by STR cells, and were negative for mycoplasma through routine inspections.
(§2) IC50 values of the compounds of the present disclosure (including the compounds in Table 1 and compounds of examples 1-23) were measured using Cell Titer Blue, Cell Titer GLO, or WST reagent from Promega Company. Assay details are as follows: Cells were seeded in 100 μL RPMI1640 medium containing serum at a density of 15,000 cells/well. After 24 h, the inoculated cells were treated with diluted commercial inhibitor and the compounds of the present disclosure to be tested after serial dilution. After the cells were treated with the compounds of the present disclosure to be tested for 72 h, cell viability was determined after adding the cell viability detection kit listed above according to the reagent operating instructions. The negative control was DMSO, and the positive control was a commercial inhibitor, both of which were used to treat the cells through the same method as that of the compounds of the present disclosure. The growth inhibition of the compounds of the present disclosure on cells was plotted by Prism Graphpad software, and the IC50 values of the compounds of the present disclosure were calculated therefrom.
(§3) We tested the activities of the compounds of the present invention (including the compounds in Table 1 and Examples 1-23 compounds) in multiple myeloma cancer cells MM.1S cell and B lymphoma cells Daudi through a dose-dependent manner. The cells were treated with the compounds of the present invention at 10 different successively decreasing concentrations (starting at the highest concentration of […]; 5-fold serial dilutions) for 72 h, and then the cell viability determination was performed in accordance with CCK-8 reagent operating instructions.

[1] = tested on: human mantle cell lymphoma cell line JEKO-1; experiment: Cell proliferation inhibition (CCK-8) in JEKO-1; type: cell-based; details: JEKO-1 cells, 72 h treatment, FIG. 3
From the text: as §1, with “The cells used were identified as correct cells by STR cells, and were negative for mycoplasma through routine inspections.” left out
(§4) IC50 values of the compounds of the present disclosure (including the compounds in Table 1 and compounds of examples 1-23) were measured using Cell Titer Blue, Cell Titer GLO, or WST reagent from Promega Company. […] After the cells were treated with the compounds of the present disclosure to be tested for 72 h, cell viability was determined after adding the cell viability detection kit listed above according to the reagent operating instructions. […] The growth inhibition of the compounds of the present disclosure on cells was plotted by Prism Graphpad software, and the IC50 values of the compounds of the present disclosure were calculated therefrom. […]

IKZF1/3 [2] = experiment: IKZF protein degradation, western blotting assay in SU-DHL-4; type: cell-based, human; details: SU-DHL-4, western blotting, dose-dependent; FIGS. 4-5
Procedure: (§5) Most antibodies were purchased from Cell Signaling Technology, including IKZF1 (#9034S), IKZF3(#15103S), CK1α(#ab108296). GAPDH antibody was purchased from Abcam Company. Tumor cells were plated in a 24-well plate at a cell seeding density of 3×10^5 cells/mL, with 1 mL culture media per well. After 24 h, the cells were treated with different concentrations of the compounds of the present disclosure. After 16 hours, the cells were collected, and washed with PBS. The supernatant was discarded, and the cells were placed on ice, and treated with RIPA protein lysate containing Halt protease and phosphatase inhibitor. The lysate was centrifuged at 10000 RPM at 4° C. for 10 minutes, and the supernatant was collected. An equal amount of proteins were loaded in 4×SDS sample solution, denatured at 95° C. for 5 minutes, and then freezed to -20° C. or directly subjected to protein electrophoresis (4-15% gradient gel, Bio-rad). […] DC50 value (the drug concentration required for degrading proteins by 50%, abbreviated as DC50) reads method: comparing the gray values of the Western blotting bands for the drug treatment with the gray values of the Western blotting band for the DMSO control, and reading the drug concentration range corresponding to the gray value of the Western blotting bands for the drug treatment which is equal to half of the gray value of the Western blotting band for the DMSO control. […]

IKZF1/3 [3] = experiment: IKZF protein degradation, western blotting assay in WSU-DLCL2; type: cell-based, human; details: dose-dependent, FIGS. 4-5
Procedure: as §5

[4] = tested on: human B-cell lymphoma cell line DOHH2; experiment: Cell proliferation inhibition (CCK-8) in DOHH2; type: cell-based; details: DOHH-2, DOHH2 cells, 72 h treatment, read-out: IC50 (half inhibitory concentration) in tumor cells, DOHH2
From the text: as §1, with “The cells used were identified as correct cells by STR cells, and were negative for mycoplasma through routine inspections.” left out
as §4

[5] = tested on: human diffuse large B-cell lymphoma cell line WSU-DLCL2; experiment: Cell proliferation inhibition (CCK-8) in WSU-DLCL2; type: cell-based; details: WSUDLCL2, WSU-DLCL2 cells, 72 h treatment, read-out: IC50 (half inhibitory concentration) in tumor cells, WSU-DLCL2
From the text: as §1, with “The cells used were identified as correct cells by STR cells, and were negative for mycoplasma through routine inspections.” left out
as §4

[6] = tested on: human mantle cell lymphoma cell line Mino; experiment: Cell proliferation inhibition (CCK-8) in Mino; type: cell-based; details: MINO cells, 72 h treatment, read-out: IC50 (half inhibitory concentration) in tumor cells, MINO
From the text: as §1, with “The cells used were identified as correct cells by STR cells, and were negative for mycoplasma through routine inspections.” left out
as §4

[7] = tested on: multiple myeloma cancer cells MM.1S; experiment: Cell proliferation inhibition (cell viability, CCK-8) in MM.1S; type: cell-based; details: Homo sapiens, MM1.S; MM.1S cells, 72 h treatment, CCK-8 cell viability
From the text: as §1, §2, §3

[8] = tested on: human B-cell lymphoma cell line SU-DHL-4; experiment: Cell proliferation inhibition (CCK-8) in SU-DHL-4; type: cell-based; details: SU-DHL-4 cells, 72 h treatment, FIG. 3
From the text: as §1, with “The cells used were identified as correct cells by STR cells, and were negative for mycoplasma through routine inspections.” left out
as §4

[9] = tested on: human diffuse large B-cell lymphoma cell line TMD8; experiment: Cell proliferation inhibition (CCK-8) in TMD8; type: cell-based; details: TMD8 cells, 72 h treatment, read-out: IC50 (half inhibitory concentration) in tumor cells, TMD8
From the text: as §1, with “The cells used were identified as correct cells by STR cells, and were negative for mycoplasma through routine inspections.” left out
as §4

Compound: Cc1nc2cccc(NCc3ccc(CN4CCCCCC4)cc3F)c2c(=O)n1C1CCC(=O)NC1=O (stereo not shown) [SIAIS355035, 3-(5-((4-(azepan-1-ylmethyl)-2-fluorobenzyl)amino)-2-methyl-4-oxoquinazolin-3(4H)-yl)piperidine-2,6-dione]
- IC50 (B lymphoma cells Daudi): 12.9 ± 3.87 nM
- inhibition of JEKO-1 cell line (in words) [1]: significantly stronger inhibitory effects as compared with CC-122 and lenalidomide
- IKZF1/3 degradation (in words) (IKZF1/3 [2]): can significantly degrade IKZF1/3 at effective concentration significantly lower than that of CC-122
- IKZF1/3 degradation (in words) (IKZF1/3 [3]): can significantly degrade IKZF1/3 at effective concentration significantly lower than that of CC-122
- IC50 [4]: 307 nM
- IC50 [5]: 164 nM
- IC50 [6]: 5.05 nM
- IC50 [7]: 2.62 ± 0.49 nM
- inhibition of SU-DHL-4 cell line (in words) [8]: significantly stronger inhibitory effects as compared with CC-122 and lenalidomide
- IC50 [9]: 103 nM
